The text below walks through data of US10870660B2, “Nitrogen-containing condensed ring compounds having dopamine D3 antagonistic effect” (Shionogi & Co., Ltd., priority 2016, dated 2020).

The target in assay [1] is human recombinant dopamine D2 receptor (Homo sapiens (Human), UniProt P14416). Put plainly: Test of binding inhibition for the human dopamine D2 receptor ([3H]-Metylspiperone SPA binding). To be noted: [3H]-Metylspiperone 1.2 nM, Jump-In HEK cell membranes, read-out: hD2_Ki. Here is the method: Cell membranes: Jump-In HEK cell membranes expressing human recombinant dopamine D2 receptor (2 μg/well)
Sequence of human recombinant dopamine D2 receptor (P14416 whole entry): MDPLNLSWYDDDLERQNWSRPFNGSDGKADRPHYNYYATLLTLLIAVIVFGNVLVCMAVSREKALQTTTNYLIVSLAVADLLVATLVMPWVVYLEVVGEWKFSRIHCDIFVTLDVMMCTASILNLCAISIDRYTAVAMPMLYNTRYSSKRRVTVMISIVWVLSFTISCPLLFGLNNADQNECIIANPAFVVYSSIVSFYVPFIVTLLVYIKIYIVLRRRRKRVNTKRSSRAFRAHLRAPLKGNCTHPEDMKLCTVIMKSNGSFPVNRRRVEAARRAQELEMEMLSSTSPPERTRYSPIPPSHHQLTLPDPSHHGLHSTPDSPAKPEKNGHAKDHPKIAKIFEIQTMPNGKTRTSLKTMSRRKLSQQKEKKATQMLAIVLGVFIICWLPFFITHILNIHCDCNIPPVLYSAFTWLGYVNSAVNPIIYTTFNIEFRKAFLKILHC
Buffer solution: 50 mM Tris-HCl (35409-45, Nacalai Tesque) (pH 7.4) containing 120 mM NaCl (31320-05, Nacalai Tesque), 1 mM MgCl2.6H2O (20909-55, Nacalai Tesque), 5 mM KCl (28514-75, Nacalai Tesque) and 2 mM CaCl2 (067-31, Nacalai Chemical, Ltd)
Radioligand: (final concentration) 1.2 nM [^3H]-Metylspiperone ([^3H—N-methyl-]-Metylspiperone, NET-856, 83.8 Ci/mmol, PerkinElmer)
(§1) Non-specific ligand: (final concentration) 10 μM Butaclamol [(+)-Butaclamol Hydrochioride, D033, Sigma]
(§2) SPA beads: SPA beads [WGA PVT SPA Scintillatiion Beads, RPNQ0001 (500 mg), RPNQ0060 (2 g), PerkinElmer] (0.2 mg/well)
(§3) Incubation time and temperature: 120 min at 25° C.
(§4) Butaclamol or the compounds of the present invention were weighed and DMSO was added to make a 10 mM solution. This solution was diluted to each concentration.
[^3H]-Metylspiperone was weighed and the buffer solution was added to make a 3.6 nM solution.
(§5) SPA beads were weighed and stirred in water to make a 50 mg/mL solution. Using this solution, a mixed solution with the cell membranes was prepared.
225 nL of the solutions of the non-specific ligand or the compounds of the present invention at each concentration (in case of vehicle, final concentration 0.3% DMSO) were added in each well of a 384-well white/clear bottom microplate (3706, Corning). Jump-In HEK Cell membranes (final reaction amount: 2 μg protein/well), SPA beads (final reaction amount: 0.2 mg/well) and the buffer were mixed and the mixed solution was left still for more than or equal to 1 h at 4° C. Then, 50 μL of the mixture was added to each well of the plate. In addition, 25 μL of 3.6 nM [^3H]-Metylspiperone (final concentration: 1.2 nM) was added to each well. The plate was sealed by putting TopSeal-A 96/384 well (6050185, PerkinElmer) on the top of the plate, mixed using stirring deaerator (Welltornado, FK-62, Sakaki) and incubated for 120 min at 25° C. After incubation, the radioactivity of [^3H]-Metylspiperone which was binded to D2 receptor was determined by liquid scintillation counter (1450 Microbeta, PerkinElmer) in each well. Non-specific binding was calculated based on the radioactivity of [^3H]-Metylspiperone in the presence of 10 μM non-labeled Butaclamol. The total binding was calculated using the radioactivity of [^3H]-Metylspiperone in the absence of the compounds of the present invention (Vehicle). The Ki values were calculated from dose-response curves.
(§6) Binding activities of the compounds of the present invention were calculated from the following Binding Inhibition Rate (%): Inhibition Rate (%)=[1−(c−a)(b−a)]×100(%) • a: Average cpm of non-specific binding • b: Average cpm of total binding • c: Cpm in the presence of each test compound

Assay [2] deals with human recombinant dopamine D3 receptor (Homo sapiens (Human), UniProt P35462). Put plainly: Test of binding inhibition for the human dopamine D3 receptor ([3H]-Metylspiperone SPA binding). To be noted: [3H]-Metylspiperone 2 nM, Jump-In HEK cell membranes, read-out: hD3_Ki. Here is the method: Cell membranes: Jump-In HEK cell membranes expressing human recombinant dopamine D3 receptor (4 μg/well)
Sequence of human recombinant dopamine D3 receptor (P35462 whole entry): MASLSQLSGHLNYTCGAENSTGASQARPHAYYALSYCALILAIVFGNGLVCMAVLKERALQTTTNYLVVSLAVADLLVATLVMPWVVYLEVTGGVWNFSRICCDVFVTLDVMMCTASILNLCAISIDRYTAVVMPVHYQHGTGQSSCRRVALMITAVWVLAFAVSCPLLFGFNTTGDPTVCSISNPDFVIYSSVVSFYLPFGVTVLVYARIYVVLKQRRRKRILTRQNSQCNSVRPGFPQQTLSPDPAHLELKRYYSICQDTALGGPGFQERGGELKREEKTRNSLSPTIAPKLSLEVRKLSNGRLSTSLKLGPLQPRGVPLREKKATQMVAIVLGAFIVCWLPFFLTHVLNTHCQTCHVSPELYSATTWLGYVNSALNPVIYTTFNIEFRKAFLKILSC
as §1, §2, §3, §4
[^3H]-Metylspiperone was weighed and the buffer solution was added to make a 6 nM solution.
as §5
Jump-In HEK Cell membranes (final reaction amount: 4 μg/well), SPA beads (final reaction amount: 0.2 mg/well) and Tris-HCl buffer were mixed and the mixed solution was left still for more than 60 min at 4° C. Then, 50 μL of the mixture was added to each well of the plate. In addition, 25 μL of 6 nM [^3H]-Metylspiperone (final concentration: 2 nM) was added to each well. […] Non-specific binding was calculated based on the radioactivity of [^3H]-Metylspiperone in the presence of 10 μM non-labeled Butaclamol. The total binding was calculated based on the radioactivity of [^3H]-Metylspiperone in the absence of the compounds of the present invention (Vehicle). The Ki values were calculated from dose-response curves.
as §6

Regarding `Cc1ncc(CC(=O)N[C@H]2CC[C@H](CCN3CCc4ccc(N5CC(F)(F)C5)nc4CC3)CC2)s1` [II-066], the Ki in assay [1] was above 1900 nM; in assay [2], 0.84 nM.
On to `Cc1ncc(CC(=O)N[C@H]2CC[C@](F)(CCN3CCc4nc(OCC(C)(F)F)sc4CC3)CC2)s1` [II-070], for which the Ki in assay [1] turned out to be 820 nM; in assay [2], 0.44 nM.
As to `Cn1cc2c(C(=O)N[C@H]3CC[C@H](CCN4CCc5cnc(CCC(F)(F)F)nc5CC4)CC3)cccc2n1` [II-072], the Ki is above 1800 nM in assay [1] and 0.48 nM in assay [2].
The corresponding values for `COc1cc(CC(=O)N[C@H]2CC[C@H](CCN3CCc4ccc(OCC(F)(F)F)nc4CC3)CC2)on1` [II-077] are above 1800 nM and 0.095 nM.
Take `Cc1cc(OCC(=O)N[C@H]2CC[C@H](CCN3CCc4ccc(OCC(F)(F)F)nc4CC3)CC2)no1` [II-078]: the results for the Ki in assay [1] and in assay [2] were above 1800 nM and 0.075 nM, respectively.
The like results for `CCn1c(C(=O)N[C@H]2CC[C@H](CCN3CCc4ccc(OCC(F)(F)F)nc4CC3)CC2)cccc1=O` [II-081] were, in that order, 230 nM and 0.048 nM.
For `Cc1ncc(CC(=O)N[C@H]2CC[C@H](CCN3CCc4nc(OCC(F)(F)F)sc4CC3)CC2)o1` [II-085], the Ki was 740 nM in assay [1] and 0.096 nM in assay [2].
In the case of `Cn1cc2c(C(=O)N[C@H]3CC[C@H](CCN4CCc5ccc(OCC(F)(F)F)nc5CC4)OC3)cccc2n1` [II-087], the Ki in assay [1] amounted to 260 nM; in assay [2], 0.059 nM.
The like results for `Cc1ncc(CC(=O)N[C@H]2CC[C@H](CCN3CCc4cn(CCC(F)(F)F)nc4CC3)CC2)s1` [II-088] were, in that order, above 1900 nM and 7.4 nM.
Regarding `Cc1ncc(CC(=O)N[C@H]2CC[C@H](CCN3CCc4nc(OCC5CC5)sc4CC3)CC2)s1` [II-090], the figures for the Ki in assay [1] and in assay [2] were above 1900 nM and 0.64 nM, respectively.
`Cc1ncc(CC(=O)N[C@H]2CC[C@H](CCN3CCc4nc(OCC(C)(C)F)sc4CC3)CC2)s1` [II-099]: the Ki in assay [1] is above 1900 nM; in assay [2], 0.52 nM.
For `O=C(NCCCCN1CCc2ccc(OCC(F)(F)F)nc2CC1)c1cc2ccccc2[nH]1` [II-105], the Ki stood at 1100 nM in assay [1] and 0.11 nM in assay [2].
As to `Cc1nc(CC(=O)N[C@H]2CC[C@H](CCN3CCc4ccc(OCC(F)(F)F)nc4CC3)OC2)no1` [III-001], the Ki in assay [1] was determined as 1100 nM; in assay [2], 0.5 nM.
In the case of `Cc1ncc(CC(=O)N[C@H]2CC[C@H](CCN3CCc4cc(C)c(OCC(F)F)nc4CC3)OC2)s1` [III-008], the Ki in assay [1] was determined as 480 nM; in assay [2], 0.25 nM.
For `CN1Cc2c(C(=O)N[C@H]3CC[C@H](CCN4CCc5ccc(OCC(C)(F)F)nc5CC4)CC3)cccc2C1=O` [III-024], the Ki in assay [1] amounted to 140 nM; in assay [2], 0.012 nM.
Consider `CC(C)C(=O)N[C@H]1CC[C@H](CCN2CCc3nc(OCC(F)(F)F)sc3CC2)CC1` [III-031], for which the Ki in assay [1] worked out at 240 nM; in assay [2], 0.31 nM.
With `Cc1ncc(CC(=O)N[C@H]2CC[C@H](CCN3CCc4ccc(OC5CCOC5)nc4CC3)CC2)s1` (stereo partly drawn) [III-052], the Ki in assay [1] is above 1800 nM; in assay [2] it was 1.1 nM.
`CC(Oc1nc2c(s1)CCN(CC[C@H]1CC[C@H](NC(=O)c3cccc4nn(C)cc34)CC1)CC2)C(F)(F)F` (stereo partly drawn) [III-063]: the Ki in assay [1] was above 1900 nM; in assay [2] it was 0.13 nM.
The like results for `CC(Oc1nc2c(s1)CCN(CC[C@H]1CC[C@H](NC(=O)c3cccc4c3CN(C)C4=O)CC1)CC2)C(F)(F)F` (stereo partly drawn) [III-064] were, in that order, 640 nM and 0.026 nM.
With `Cn1cc2c(C(=O)N[C@H]3CC[C@H](CCN4CCc5ccc(C6CC6)nc5CC4)CC3)cccc2n1` [III-074], the Ki in assay [1] is above 1800 nM; in assay [2], 0.66 nM.
As for `Cn1cc2c(C(=O)N[C@H]3CC[C@H](CCN4CCc5nc(OCC(C)(C)F)sc5CC4)CC3)cccc2n1` [III-076], the results for the Ki in assay [1] and in assay [2] were above 1700 nM and 0.73 nM, respectively.
On to `Cc1nnc(CC(=O)N[C@H]2CC[C@](F)(CCN3CCc4ccc(OCC(F)(F)F)nc4CC3)CC2)o1` [III-082], for which the values for the Ki in assay [1] and in assay [2] were 410 nM and 0.45 nM, respectively.
For `Cc1ncc(OCC(=O)N[C@H]2CC[C@](F)(CCN3CCc4ccc(OCC(F)(F)F)nc4CC3)CC2)cn1` [III-088], the Ki is 310 nM in assay [1] and 0.31 nM in assay [2].
The like results for `Cn1cc(CC(=O)N[C@H]2CC[C@](F)(CCN3CCc4ccc(OCC(F)(F)F)nc4CC3)CC2)cn1` [III-102] were, in that order, 400 nM and 0.11 nM.
The corresponding values for `Cc1cc(OCC(=O)N[C@H]2CC[C@](F)(CCN3CCc4ccc(OCC(F)(F)F)nc4CC3)CC2)no1` [III-104] are above 1700 nM and 0.53 nM.
Consider `Cc1ncc(CC(=O)N[C@H]2CC[C@H](CCN3CCc4sc(OCC(F)(F)F)nc4C(C)C3)CC2)s1` (stereo partly drawn) [III-110], for which the Ki came to 610 nM in assay [1] and 0.49 nM in assay [2].
The corresponding values for `Cn1c(C(=O)N[C@H]2CC[C@H](CCN3CCc4nc(OCC(F)(F)F)sc4CC3)CC2)cccc1=O` [III-128] are 370 nM and 0.12 nM.
The corresponding values for `Cn1cc(/C=C/C(=O)N[C@H]2CC[C@H](CCN3CCc4nc(OCC(F)(F)F)sc4CC3)CC2)cn1` [III-138] are 44 nM and 0.057 nM.
Regarding `Cn1cc2c(C(=O)N[C@H]3CC[C@H](CCN4CCc5ccc(OC6CC(F)(F)C6)nc5CC4)CC3)cccc2n1` [III-155], the results for the Ki in assay [1] and in assay [2] were above 1700 nM and 0.25 nM, respectively.
As for `Cn1cc2c(C(=O)N[C@H]3CC[C@H](CCN4CCc5nc(O[C@H]6C[C@H](F)C6)sc5CC4)CC3)cccc2n1` [III-158], the Ki in assay [1] is above 1700 nM; in assay [2], 0.34 nM.
With `CC(CF)Oc1nc2c(s1)CCN(CC[C@H]1CC[C@H](NC(=O)c3cccc4nn(C)cc34)CC1)CC2` (stereo partly drawn) [III-159], the Ki in assay [1] was above 1700 nM; in assay [2] it was 0.91 nM.
With `Cc1ncc(OCC(=O)N[C@H]2CC[C@H](CCN3CCc4nc(OCC(F)(F)F)sc4CC3)OC2)cn1` [III-165], the Ki was 670 nM in assay [1] and 0.81 nM in assay [2].
As for `Cn1cc(/C=C/C(=O)N[C@H]2CC[C@H](CCN3CCc4nc(OCC(F)(F)F)sc4CC3)OC2)cn1` [III-168], the results for the Ki in assay [1] and in assay [2] were 140 nM and 0.13 nM, respectively.
Take `Cc1cc2c(C(=O)N[C@H]3CC[C@H](CCN4CCc5nc(OCC(F)(F)F)sc5CC4)OC3)cccn2n1` [III-169]: the Ki in assay [1] is 380 nM; in assay [2], 0.4 nM.
As for `Cc1cc(CC(=O)N[C@H]2CC[C@H](CCN3CCc4nc(OCC(F)(F)F)sc4CC3)OC2)on1` [III-171], the Ki in assay [1] is above 1700 nM; in assay [2], 0.47 nM.
The like results for `Cn1cc(OCC(=O)N[C@H]2CC[C@H](CCN3CCc4nc(OCC(F)(F)F)sc4CC3)OC2)cn1` [III-175] were, in that order, 650 nM and 0.68 nM.
The corresponding values for `Cc1nc(CC(=O)N[C@H]2CC[C@H](CCN3CCc4nc(OCC(F)(F)F)sc4CC3)OC2)no1` [III-180] are 460 nM and 0.72 nM.
`Cc1ncc(CC(=O)N[C@H]2CC[C@H](CCN3CCc4ccc(OCC(C)F)nc4CC3)CC2)s1` (stereo partly drawn) [III-203]: the Ki in assay [1] came to 1400 nM; in assay [2], 0.79 nM.
Turning to `Cc1ncc(CC(=O)N[C@H]2CC[C@H](C(F)CN3CCc4ccc(OCC(F)(F)F)nc4CC3)CC2)s1` (stereo partly drawn) [III-216], the values for the Ki in assay [1] and in assay [2] were above 1700 nM and 1.3 nM, respectively.
